In patent US20240183860A1, “Chimeric ABC Transporters and Screening Methods” (Genentech, Inc., priority 2021, published 2024):
Bridge positions count the residues as written; N and C are the ends. Square brackets hold non-standard residues; d marks the D form. Peptide text beside a SMILES is read from it. Bip = N[C@@H](Cc1ccc(-c2ccccc2)cc1)C(=O)O; NMeF = CN[C@@H](Cc1ccccc1)C(=O)O; NMeA = CN[C@@H](C)C(=O)O; Sar = CNCC(=O)O

What was measured:
E. coli MsbA (EcMsbA) = molecular target: T1, E. coli MsbA (EcMsbA) (Escherichia coli, UniProt P60752); assay: MsbA ATPase assay (Transcreener ADP2 FP); format: biochemical
T1 construct: FLAG (N); made in house; host or cells: E. coli (strain for the WT protein not restated)
Protocol: (§1) The ATPase activity of MsbA was measured using a Transcreener ADP2 FP Assay (BellBrook Labs). […] The final condition for the reaction was MsbA enzyme, 50 μM ATP in 50 mM Tris pH 7.5, 10 mM MgCl2, 1% glycerol, 0.1% bovine gamma globulin, 1 mM dithiothreitol (DTT), 0.007% Brij-35 and 0.5% dimethylsulfoxide (DMSO). The following concentrations were used for each MsbA variant: 5 nM of EcMsbA, EnMsbA, KpMsbA and 80 nM PaMsbA reconstituted in amphipol, 15 nM EcMsbA and EcMsbA-chim5 in LMNG detergent, 22 nM EcMsbA and 27 nM EcMsbA-12G7 complex in aDDM detergent. The enzyme reaction was incubated for 1 hour at room temperature, then quenched by adding the Transcreener Detection Buffer. The IC50 was determined by fitting the inhibition dose-response curve with a nonlinear four-parameter inhibition model (GraphPad Prism).

[1] = molecular target: T2, EcMsbA-chim5 (MsbA-chimera5) (Escherichia coli, UniProt P60752, D53T/D54Y/D60K/DEL268-292/DEL57-57/F265A/G55I/I169L/INS266IAYAGNRVIHEDMRSGALIAFIAAL/INS66P/K49D/K58D/L171A/L263V/L51V/L52I/M159V/M67L/P68V/S164D/S62H/T59E/V63D/Y163E); assay: biochemical; format: biochemical
T2 construct: FLAG (N); made in house; host or cells: E. coli Rosetta 2 (DE3), pET-52b vector
Protocol: as §1

[2] = molecular target: T3, Pseudomonas aeruginosa MsbA (PaMsbA) (Pseudomonas aeruginosa, UniProt Q9HUG8); assay: MsbA ATPase assay, amphipol-reconstituted homologue; format: biochemical
T3 construct: FLAG; made in house; host or cells: not restated ('similarly expressed')
T3 sequence (Q9HUG8 1-603): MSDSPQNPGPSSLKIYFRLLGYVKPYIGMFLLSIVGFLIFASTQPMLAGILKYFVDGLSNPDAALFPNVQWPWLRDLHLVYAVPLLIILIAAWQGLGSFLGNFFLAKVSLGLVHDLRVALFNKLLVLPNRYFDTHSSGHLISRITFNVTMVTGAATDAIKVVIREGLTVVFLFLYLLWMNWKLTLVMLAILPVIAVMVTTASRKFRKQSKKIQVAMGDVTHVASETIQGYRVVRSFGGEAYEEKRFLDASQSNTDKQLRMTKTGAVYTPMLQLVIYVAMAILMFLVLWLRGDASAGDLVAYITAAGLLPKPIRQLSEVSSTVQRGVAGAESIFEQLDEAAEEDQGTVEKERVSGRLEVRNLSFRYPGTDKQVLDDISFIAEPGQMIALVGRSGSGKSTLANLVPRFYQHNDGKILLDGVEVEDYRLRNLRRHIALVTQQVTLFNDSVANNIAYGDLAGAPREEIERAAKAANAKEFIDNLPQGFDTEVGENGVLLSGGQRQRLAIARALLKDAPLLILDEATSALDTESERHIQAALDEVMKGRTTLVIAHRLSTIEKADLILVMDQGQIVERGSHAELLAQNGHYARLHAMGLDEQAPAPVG
Protocol: as §1

[3] = system: WT E. coli cells with an intact outer membrane (CFT073, UPEC WT); assay: Cellular IC50 determination (BacTiter-Glo, 6 hours); format: cell-based, Escherichia coli
Protocol: The cellular IC50's of various bacterial strains (Table 2) were determined.
200 nL aliquots of eight 2-fold dilutions of each compound were dispensed in duplicate into 384-well plates using an Echo Liquid Handler (Labcyte). Strains were grown in cation-adjusted Mueller Hinton Broth with 0.002% Tween overnight for 16 hours, washed with PBS, resuspended at OD600=1 in cation-adjusted Mueller Hinton Broth with 0.002% Tween and 10% glycerol, and frozen in […] aliquots. For each experiment, aliquots were thawed on ice and diluted 1:1000 into cation-adjusted Mueller Hinton Broth with 0.002% Tween. 10 μL cells/well were added to 384-well plates containing compound. Plates were incubated for 6 hours at 37° C., then 10 μL BacTiter-Glo reagent (Promega) was added to each well and luminescence was measured. IC50's were calculated using Genedata Screener software.

[4] = system: imp E. coli (lptD(imp4213)), E. coli MsbA; assay: Broth MIC assay; format: cell-based, Escherichia coli; details: Table 5 prints no unit; μM
Protocol: Broth MICs were determined in cation-adjusted Mueller-Hinton broth with 0.002% Tween-80, as previously described (Ho et al., 2018).

[5] = molecular target: T4, EcMsbA-chim5 (MsbA-chimera5) (Escherichia coli, UniProt P60752, D53T/D54Y/D60K/DEL268-292/DEL57-57/F265A/G55I/I169L/INS266[…]/INS66P/K49D/K58D/L171A/L263V/L51V/L52I/M159V/M67L/P68V/S164D/S62H/T59E/V63D/Y163E); assay: biochemical; format: biochemical; details: ATPase; FIGS. 11D-E
T4 construct: FLAG (N); made in house; host or cells: E. coli Rosetta 2 (DE3), pET-52b vector
Protocol: as §1

[6] = molecular target: T5, E. coli MsbA-chimera5 (chimera of Escherichia coli MsbA and Magnetospira strain-QH-2 MsbA), P60752; assay: cell-based or functional assay
T5 chain: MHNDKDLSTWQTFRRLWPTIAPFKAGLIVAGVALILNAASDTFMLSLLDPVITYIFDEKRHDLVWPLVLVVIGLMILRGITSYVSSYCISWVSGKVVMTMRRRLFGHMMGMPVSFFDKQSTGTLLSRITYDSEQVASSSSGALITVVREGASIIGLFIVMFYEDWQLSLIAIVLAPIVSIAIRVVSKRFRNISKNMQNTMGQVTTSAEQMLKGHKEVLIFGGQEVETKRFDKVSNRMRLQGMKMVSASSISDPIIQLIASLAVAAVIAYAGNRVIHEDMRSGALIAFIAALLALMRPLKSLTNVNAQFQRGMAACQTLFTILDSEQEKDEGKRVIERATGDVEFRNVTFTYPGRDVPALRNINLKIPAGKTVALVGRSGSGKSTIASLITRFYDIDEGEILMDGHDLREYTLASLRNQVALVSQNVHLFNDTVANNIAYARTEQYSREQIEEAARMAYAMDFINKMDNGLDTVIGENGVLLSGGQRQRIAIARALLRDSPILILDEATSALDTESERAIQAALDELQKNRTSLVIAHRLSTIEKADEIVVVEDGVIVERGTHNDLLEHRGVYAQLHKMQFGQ

[7] = molecular target: Enterobacter cloacae MsbA (Enterobacter cloacae); assay: cell-based or functional assay
[8] = molecular target: T6, Escherichia coli MsbA (wild-type) (Escherichia coli), P60752; assay: cell-based or functional assay
T6 chain: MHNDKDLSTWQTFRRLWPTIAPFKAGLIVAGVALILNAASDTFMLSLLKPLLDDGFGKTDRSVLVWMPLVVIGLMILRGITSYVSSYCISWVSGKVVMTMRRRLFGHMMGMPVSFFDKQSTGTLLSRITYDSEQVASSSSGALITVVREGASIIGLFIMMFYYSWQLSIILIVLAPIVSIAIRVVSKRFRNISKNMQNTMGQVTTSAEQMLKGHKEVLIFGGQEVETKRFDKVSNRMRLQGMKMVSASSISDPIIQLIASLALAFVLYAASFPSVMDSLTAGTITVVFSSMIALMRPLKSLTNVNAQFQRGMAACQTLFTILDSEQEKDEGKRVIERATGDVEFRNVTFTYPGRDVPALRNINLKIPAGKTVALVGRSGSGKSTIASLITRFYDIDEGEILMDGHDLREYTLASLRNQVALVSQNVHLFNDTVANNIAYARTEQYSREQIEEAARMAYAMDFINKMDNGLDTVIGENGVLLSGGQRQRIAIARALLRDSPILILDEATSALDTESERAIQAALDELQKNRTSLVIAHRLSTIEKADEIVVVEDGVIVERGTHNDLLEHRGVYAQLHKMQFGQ

[9] = molecular target: Klebsiella pneumoniae MsbA (Klebsiella pneumoniae); assay: cell-based or functional assay
[10] = molecular target: T7, Pseudomonas aeruginosa MsbA (Pseudomonas aeruginosa), Q9HUG8; assay: cell-based or functional assay
T7 chain: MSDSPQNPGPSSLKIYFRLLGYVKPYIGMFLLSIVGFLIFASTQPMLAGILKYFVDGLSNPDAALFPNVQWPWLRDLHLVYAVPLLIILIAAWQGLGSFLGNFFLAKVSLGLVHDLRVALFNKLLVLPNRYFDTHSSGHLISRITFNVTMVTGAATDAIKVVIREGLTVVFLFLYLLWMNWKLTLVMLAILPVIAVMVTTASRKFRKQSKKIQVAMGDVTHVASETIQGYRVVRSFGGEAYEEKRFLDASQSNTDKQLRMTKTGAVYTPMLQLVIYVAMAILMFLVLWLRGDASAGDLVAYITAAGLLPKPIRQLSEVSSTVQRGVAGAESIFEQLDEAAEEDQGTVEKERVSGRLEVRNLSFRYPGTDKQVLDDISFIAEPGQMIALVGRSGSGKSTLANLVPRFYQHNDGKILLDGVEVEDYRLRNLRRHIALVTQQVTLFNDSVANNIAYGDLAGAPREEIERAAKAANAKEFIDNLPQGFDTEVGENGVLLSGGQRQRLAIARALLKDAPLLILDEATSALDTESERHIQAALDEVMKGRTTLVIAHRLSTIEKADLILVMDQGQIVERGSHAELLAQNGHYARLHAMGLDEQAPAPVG

[11] = IC50 for inhibition of ATPase activity of MsbA, experiment of FIG. 3F / b233

`CC(C)[C@@H]1NC(=O)[C@H](CCCNC(=N)N)NC(=O)[C@H](Cc2ccccc2)N(C)C(=O)[C@H](Cc2ccc(-c3ccccc3)cc2)NC(=O)[C@H](Cc2ccc(O)cc2)NC(=O)[C@H](C(C)C)NC(=O)[C@H](Cc2ccccc2)NC(=O)CSC[C@@H](C(N)=O)NC1=O` [Compound G1365, ClAc-FVYBphMeFRVCNH2] ({CH2CO}-FVY[Bip][NMeF]RVC-NH2; thioether N-8) was tested, and the IC50 (E. coli MsbA (EcMsbA); ATPase inhibitory activity on WT EcMsbA, IC50, purified WT EcMsbA, FIG. 3D) was 1300 nM, the IC50 (E. coli MsbA (EcMsbA); biochemical IC50, FIGS. 3G-L, 8-10 mer macrocycle series experiment) was 300 nM and the IC50 [1] was > 5000 nM. For the same molecule, the IC50 [2] was 7600 nM, the EC50 ([3]; dose response on imp MsbAWT, imp MsbA High and UPEC WT, b248: EC50 for wild-type E. coli cells, read-out: EC50, FIGS. 3G-L) was 20000 nM and the IC50 ([3]; over the course of 6 hours, read-out: IC50, inhibition of growth of WT E. coli cells with an intact outer membrane) was ~20000 nM. For the same molecule, the “imp Strain MICs: imp, E.coli MsbA” value [4] was 12.5 µM.

In the case of `CC(C)C[C@@H]1NC(=O)[C@H](Cc2c[nH]c3ccccc23)NC(=O)[C@H](Cc2c[nH]c3ccccc23)NC(=O)[C@H](Cc2ccccc2)NC(=O)CSC[C@@H](C(N)=O)NC(=O)[C@H](C(C)C)NC(=O)[C@H](Cc2ccccc2)N(C)C(=O)[C@H](Cc2c[nH]c3ccccc23)NC(=O)[C@H](Cc2c[nH]c3ccccc23)NC(=O)[C@H](CC(=O)O)NC(=O)CN(C)C(=O)[C@H](CC(=O)O)NC(=O)[C@H](CO)NC(=O)[C@H](Cc2c[nH]c3ccccc23)NC1=O` [Compound G1119] ({CH2CO}-FWWLWSD[Sar]DWW[NMeF]VC-NH2; thioether N-14), the IC50 (E. coli MsbA (EcMsbA); [11]) is reported as 5 nM.

With `CC1CCN(CC(=O)Nc2ccc(C#N)nc2C(=O)c2ncccc2F)CC1` [Compound G758, N-(6-cyano-2-(3-fluoropicolinoyl)pyridin-3-yl)-2-(4-methylpiperidin-1-yl)acetamide, reference compound] the “sensitivity of MsbA-chim5 to previously identified small-molecule inhibitors” value [5] was “displayed sensitivity”.

Molecule `CC(C)C[C@@H]1NC(=O)CNC(=O)[C@H](Cc2c[nH]c3ccccc23)NC(=O)[C@H](C)N(C)C(=O)[C@H](Cc2c[nH]c3ccccc23)NC(=O)[C@H](CC(C)C)NC(=O)[C@H](Cc2ccc(O)cc2)NC(=O)[C@H](CCCNC(=N)N)NC(=O)[C@H](Cc2ccccc2)NC(=O)CSC[C@@H](C(N)=O)NC(=O)[C@H](CC(N)=O)NC(=O)[C@H](CC(=O)O)NC(=O)[C@H](Cc2c[nH]c3ccccc23)NC(=O)[C@H](C(C)C)NC1=O` [Compound G1122] ({CH2CO}-FRYLW[NMeA]WGLVWDNC-NH2; thioether N-14) has an IC50 (E. coli MsbA (EcMsbA); [11]) of 2 nM.

In the case of FWWLWDDVSWWFVC (modifications not checked) [G1118], the IC50, ATPase activity of purified MsbA-chim5 [6] is reported as > 5000 nM, the fold lower potency than on EcMsbA (ATPase) [6] is reported as > 30 fold and the IC50, ATPase activity [7] is reported as 240 nM. It also gave an IC50, ATPase activity of purified EcMsbA [8] of 110 nM, an IC50 for inhibition of ATPase activity of MsbA [8] of 5 nM and a minimum inhibitory concentration (MIC), E. coli cells with the lptD(imp4213) allele [8] of 210 µg/mL. The IC50, ATPase activity [9] was 120 nM and the IC50, ATPase activity [10] was 3100 nM.
